“Also recorded” adds a separate entry of the source. Like-named read-outs stand apart in the source and are kept apart here. Positions of bridges follow the written chain, without caps; N, C: chain ends. Residues, ends and D or L forms follow the SMILES beside them. *: point of attachment. Ms = CS(=O)(=O)*
Columns and labels:
chick N-cadherin = molecular target: T1, chick N-cadherin (Gallus gallus, UniProt P10288); test: Neurite outgrowth of rat cerebellar neurons on N-cadherin expressing 3T3 monolayers (Example 15); format: cell-based; settings: for inhibitory activity on N-cadherin dependent neurite outgrowth, structure/activity statements: Tables 8 and 9; for inhibition at 250 µg/mL: 16-18 hours, read-out: % Inhibition of N-Cadherin Dependent Neurite Outgrowth
T1 construct: expressed in transfected cells; host or cells: 3T3 fibroblasts (monolayer); rat post-natal day 2-3 cerebellar neurons plated on top
T1 sequence (P10288 165-912): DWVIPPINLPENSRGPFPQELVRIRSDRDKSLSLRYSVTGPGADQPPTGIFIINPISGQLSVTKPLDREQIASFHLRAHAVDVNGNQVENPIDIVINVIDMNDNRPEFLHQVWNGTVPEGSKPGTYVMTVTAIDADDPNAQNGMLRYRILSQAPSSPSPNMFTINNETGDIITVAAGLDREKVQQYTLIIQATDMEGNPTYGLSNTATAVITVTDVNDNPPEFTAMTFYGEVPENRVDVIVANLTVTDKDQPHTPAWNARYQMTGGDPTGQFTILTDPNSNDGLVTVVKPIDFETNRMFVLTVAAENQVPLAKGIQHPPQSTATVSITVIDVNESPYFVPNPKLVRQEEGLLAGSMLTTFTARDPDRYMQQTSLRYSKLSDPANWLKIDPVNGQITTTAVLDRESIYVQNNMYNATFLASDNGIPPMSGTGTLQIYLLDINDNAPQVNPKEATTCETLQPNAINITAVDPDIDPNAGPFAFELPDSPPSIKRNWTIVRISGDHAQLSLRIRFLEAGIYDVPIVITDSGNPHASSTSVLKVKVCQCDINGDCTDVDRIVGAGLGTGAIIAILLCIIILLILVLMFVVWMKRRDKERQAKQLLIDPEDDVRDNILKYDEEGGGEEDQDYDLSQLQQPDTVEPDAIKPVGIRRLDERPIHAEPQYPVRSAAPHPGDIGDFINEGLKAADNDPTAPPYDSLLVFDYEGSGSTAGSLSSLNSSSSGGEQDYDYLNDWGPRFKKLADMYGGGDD
Procedure: (§1) Cell culture and neurite outgrowth assays. Co-cultures of cerebellar neurons on monolayers of control 3T3 cells and monolayers of transfected 3T3 cells that express physiological levels of chick N-cadherin or human L1 were established as previously described (Williams et al., Neuron 13:583-594, 1994). In brief, 80,000 3T3 cells (control and transfected) were plated into individual chambers of an eight-chamber tissue culture slide coated with polylysine and fibronectin and cultured in DMEM/10% FCS. After 24 hours, when confluent monolayers had formed, the medium was removed and 3000 cerebellar neurons isolated from post-natal day 2-3 rats were plated into each well in SATO media (Doherty et al., Nature 343:464-466, 1990) supplemented with 2% FCS. All of the test peptides were added immediately before the neurons as a 2× stock prepared in SATO/2% FCS. The co-cultures were maintained for 16-18 hours, at which time they were fixed and immunostained for GAP-43 which is present only in the neurons and delineates the neuritic processes. The mean length of the longest neurite per cell was measured for 150-200 neurons sampled in replicate cultures as previously described (Williams et al., Neuron 13:583-594, 1994). […] Dose-response curves were evaluated and the EC50 values determined.

[1] = system: Madin Darby canine kidney (MDCK) cells; format: cell-based; settings: for EC50, decrease of electrical resistance across MDCK cell monolayer: 18 hours
Procedure: Yet another assay evaluates the effect of a modulating agent on the electrical resistance across a monolayer of cells. For example, Madin Darby canine kidney (MDCK) cells can be exposed to the modulating agent dissolved in medium (e.g., at a final concentration of 0.5 mg/ml for a period of 24 hours). The effect on electrical resistance can be measured using standard techniques. This assay evaluates the effect of a modulating agent on tight junction formation in epithelial cells. In general, the presence of 500 μg/mL modulating agent should result in a statistically significant decrease in electrical resistance after 24 hours.
Madin Darby canine kidney (MDCK) cells were plated in Millicells (Millipore, Bedford, Mass.), at a density of 300,000 cells per Millicell, and cultured in Dulbecco's Modified Eagle Medium (DMEM; Sigma, St. Louis, Mo.) containing 5% fetal calf serum (Sigma, St. Louis, Mo.) until monolayers formed. Monolayers were exposed to the modulating agent dissolved in medium. The electrical resistance was measured using the EVOM device (World Precision Instruments, Sarasota, Fla.). At the time of measurement, fresh medium, with or without the modulating agent, may be added to the Millicells.

N-cadherin = molecular target: T2, N-cadherin (Gallus gallus, UniProt P10288); test: Neurite outgrowth inhibition, rat neurons (Example 21); format: cell-based; settings: read-out: % Inhibition of neurite outgrowth; 250 μg/mL
T2 construct: expressed in transfected cells; host or cells: 3T3 fibroblasts (monolayer)
T2 sequence (P10288 165-912): T1 sequence (P10288 165-912)

L1 = L1 (Homo sapiens, UniProt P32004); test: Neurite outgrowth of rat cerebellar neurons on L1 expressing 3T3 monolayers (Example 15); format: cell-based; design: expressed in transfected cells; rat cerebellar neurons on top; settings: for inhibition at 125 µg/mL: 125 μg/ml, read-out: % Inhibition of L1 Response; for effect on L1 stimulated neurite outgrowth (in words): concentrations that inhibited the N-cadherin response (100 μg/mL in FIG. 24)
Chain of L1 (P32004 20-1257): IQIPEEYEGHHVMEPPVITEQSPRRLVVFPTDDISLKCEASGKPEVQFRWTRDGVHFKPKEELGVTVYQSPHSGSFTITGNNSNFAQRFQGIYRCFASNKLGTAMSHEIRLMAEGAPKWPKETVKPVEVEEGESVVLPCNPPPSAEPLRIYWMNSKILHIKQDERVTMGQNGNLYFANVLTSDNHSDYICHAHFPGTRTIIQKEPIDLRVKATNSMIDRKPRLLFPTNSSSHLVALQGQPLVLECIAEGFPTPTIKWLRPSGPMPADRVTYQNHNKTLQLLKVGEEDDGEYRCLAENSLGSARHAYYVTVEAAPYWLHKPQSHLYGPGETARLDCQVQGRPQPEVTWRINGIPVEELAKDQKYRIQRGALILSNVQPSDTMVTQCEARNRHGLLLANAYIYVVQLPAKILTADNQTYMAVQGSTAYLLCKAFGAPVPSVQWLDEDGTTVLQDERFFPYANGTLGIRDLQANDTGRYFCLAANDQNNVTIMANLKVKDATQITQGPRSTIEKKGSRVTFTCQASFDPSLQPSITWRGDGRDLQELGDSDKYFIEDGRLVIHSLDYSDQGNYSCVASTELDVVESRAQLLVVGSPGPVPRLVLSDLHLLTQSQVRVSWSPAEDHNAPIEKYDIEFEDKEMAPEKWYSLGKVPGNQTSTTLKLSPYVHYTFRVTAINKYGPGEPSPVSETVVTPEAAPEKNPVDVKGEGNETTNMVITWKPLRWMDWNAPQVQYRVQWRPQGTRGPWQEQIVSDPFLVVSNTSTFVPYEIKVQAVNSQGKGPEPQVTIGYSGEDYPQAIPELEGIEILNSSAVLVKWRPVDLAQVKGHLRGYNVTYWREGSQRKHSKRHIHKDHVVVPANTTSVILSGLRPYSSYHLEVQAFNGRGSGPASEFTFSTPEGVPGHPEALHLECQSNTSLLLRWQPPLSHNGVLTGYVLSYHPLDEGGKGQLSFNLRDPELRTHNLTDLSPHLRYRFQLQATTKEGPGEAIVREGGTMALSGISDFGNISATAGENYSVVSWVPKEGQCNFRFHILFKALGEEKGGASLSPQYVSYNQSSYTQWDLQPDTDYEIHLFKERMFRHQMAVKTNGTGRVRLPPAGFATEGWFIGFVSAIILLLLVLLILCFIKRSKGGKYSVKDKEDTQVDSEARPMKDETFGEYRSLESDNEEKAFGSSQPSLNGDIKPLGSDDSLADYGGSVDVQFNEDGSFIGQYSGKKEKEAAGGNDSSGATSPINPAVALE
Procedure: as §1
Other cell adhesion molecules, such as L1, can stimulate neurite outgrowth, and this response shares the same downstream signaling steps as the N-cadherin response. […] As previously reported, L1 stimulated neurite outgrowth from cerebellar neurons.

HMVEC = format: cell-based, human; settings: 3 h
Procedure: (§2) N—Ac-CHAVC-NH2 (SEQ ID NO:10) and the control peptide N—Ac-CHGVC-NH2 (SEQ ID NO:11) were evaluated for possible cytotoxic effects on human microvascular endothelial (HMVEC; Clonetics), human umbilical vein endothelial (HUVEC; ATCC #CRL-1730), IAFp2 (human fibroblast cell line; Institute Armand-Frapier, Montreal, Quebec), WI-38 (human fibroblast cell line; ATCC #CCL-75), MDA-MB231 (human breast cancer cell line; ATCC #HTB-26), and PC-3 (human prostate cancer cell line; ATCC #CRL-1435) cells utilizing the MTT assay (Plumb et al., Cancer Res. 49:4435-4440, 1989). Neither of the peptides was cytotoxic at concentrations up to and including 100 μM. Similarly, neither of the peptides was capable of inhibiting the proliferation of the above cell lines at concentrations up to 100 μM, as judged by ^3H-thymidine incorporation assays.

HUVEC = format: cell-based, human; settings: 3 h
Procedure: as §2

IAFp2 = format: cell-based, human; settings: 3 h
Procedure: as §2

MDA-MB231 [2] = format: cell-based, human; settings: 3 h
Procedure: as §2

PC-3 [3] = format: cell-based, human; settings: 3 h
Procedure: as §2

WI-38 = format: cell-based, human; settings: 3 h
Procedure: as §2

MDA-MB231 [4] = test: Cytotoxicity, MTT assay, MDA-MB231; format: cell-based, human
Procedure: as §2

PC-3 [5] = test: Cytotoxicity, MTT assay, PC-3; format: cell-based, human
Procedure: as §2

[6] = system: Madin Darby canine kidney (MDCK) cells; format: cell-based; settings: 18 h

Compound: CC(=O)N[C@H]1CSSC[C@@H](C(N)=O)NC(=O)[C@H](CC(=O)O)NC(=O)[C@H](C(C)C)NC(=O)[C@H](C)NC(=O)[C@H](Cc2c[nH]cn2)NC1=O [N—Ac—CHAVDC—NH2] (Ac-CHAVDC-NH2; disulfide 1-6)
- inhibition of N-cadherin dependent neurite outgrowth (in words) (chick N-cadherin; 250 μg/mL): potent inhibitors of neurite outgrowth
- inhibitory activity on N-cadherin dependent neurite outgrowth, structure/activity statements (chick N-cadherin): dramatically increased the inhibitory activity
- effect on electrical resistance across MDCK cells (in words) [1]: complete abrogation of E-cadherin specific activity
- EC50, decrease of electrical resistance across MDCK cell monolayer [1]: INACTIVE
- inhibition at 250 µg/mL (N-cadherin): 88%
- inhibition at 125 µg/mL (L1): 9.6 ± 3.3%
- effect on L1 stimulated neurite outgrowth (in words) (L1): did not interfere with the ability of neurons to extend neurites over 3T3 cells expressing L1

Compound: CC(=O)N[C@H]1CSSC[C@@H](C(N)=O)NC(=O)[C@H](C(C)C)NC(=O)[C@H](C)NC(=O)[C@H](Cc2c[nH]cn2)NC(=O)[C@H](CO)NC1=O [N—Ac—CSHAVC—NH2, N-Ac-Cys-Ser-His-Ala-Val-Cys-NH2] (Ac-CSHAVC-NH2; disulfide 1-6)
- IC50 (HMVEC): > 100 µM
- IC50 (HUVEC): > 100 µM
- IC50 (IAFp2): > 100 µM
- IC50 (MDA-MB231 [2]): > 100 µM
- IC50 (PC-3 [3]): > 100 µM
- IC50 (WI-38): > 100 µM
- IC50 (MDA-MB231 [4]): > 100 µM
- IC50 (PC-3 [5]): > 100 µM
- reduction in inhibitory activity on flanking HAV with E-cadherin amino acids (chick N-cadherin; 250 μg/mL (Table 8)): complete
- inhibition at 250 µg/mL (N-cadherin): 0%
- EC50 [6]: 20 µM

Compound: CC(=O)N[C@H]1CSSC[C@@H](C(=O)N[C@H](C(N)=O)[C@@H](C)O)NC(=O)[C@H](C(C)C)NC(=O)[C@H](C)NC(=O)[C@H](Cc2c[nH]cn2)NC1=O [N—Ac—CHAVCT—NH2] (Ac-CHAVCT-NH2; disulfide 1-5)
- inhibition at 250 µg/mL (chick N-cadherin; 250 μg/mL): 23.7 ± 6.6%
- EC50 [6]: 480 µM

Compound: CC(=O)N[C@H]1CSSC[C@@H](C(=O)N[C@@H](CO)C(N)=O)NC(=O)[C@H](C(C)C)NC(=O)[C@H](C)NC(=O)[C@H](Cc2c[nH]cn2)NC1=O [N—Ac—CHAVCS—NH2] (Ac-CHAVCS-NH2; disulfide 1-5)
- inhibition at 250 µg/mL (chick N-cadherin; 250 μg/mL): 6.9 ± 5.4%
- EC50 [6]: 490 µM

Compound: CC(C)[C@@H]1NC(=O)[C@H](C)NC(=O)[C@H](Cc2c[nH]cn2)NC(=O)[C@@H](NS(C)(=O)=O)CSSC[C@@H](C(=O)N[C@@H](Cc2ccc(O)cc2)C(N)=O)NC1=O [CH3—SO2—NH—CHAVCY—NH2] (Ms-CHAVCY-NH2; disulfide 1-5)
- EC50 [6]: 140 µM

Compound: CC(=O)N[C@H]1CSSC[C@@H](C(=O)N[C@@H](CC(=O)O)C(N)=O)NC(=O)[C@H](C(C)C)NC(=O)[C@H](C)NC(=O)[C@H](Cc2c[nH]cn2)NC1=O [N—Ac—CHAVCD—NH2] (Ac-CHAVCD-NH2; disulfide 1-5)
- inhibition at 250 µg/mL (chick N-cadherin; 250 μg/mL): 3.3 ± 10%
- EC50 [6]: 470 µM

Compound: CC(=O)N[C@H]1CSSC[C@@H](C(=O)N[C@@H](CO)C(=O)N[C@@H](CO)C(N)=O)NC(=O)[C@H](C(C)C)NC(=O)[C@H](C)NC(=O)[C@H](Cc2c[nH]cn2)NC1=O [N—Ac—CHAVCSS—NH2] (Ac-CHAVCSS-NH2; disulfide 1-5)
- inhibition at 250 µg/mL (chick N-cadherin; 250 μg/mL): 37.8 ± 4%
- EC50 [6]: 430 µM

Compound: CC[C@H](C)[C@@H]1NC(=O)[C@H](CC(=O)O)NC(=O)[C@H](C(C)C)NC(=O)[C@H](C)NC(=O)[C@H](Cc2c[nH]cn2)NC(=O)[C@@H](NC(C)=O)CSSC[C@@H](C(N)=O)NC(=O)[C@H](CC(N)=O)NC1=O (Ac-CHAVDINC-NH2; disulfide 1-8)
- inhibitory activity on N-cadherin dependent neurite outgrowth, structure/activity statements (chick N-cadherin; listed as N—Ac-CHAVDINC-NH2): only a slight loss in activity; also recorded: potent inhibitors
- effect on electrical resistance across MDCK cells (in words) [1]: complete abrogation of E-cadherin specific activity
- EC50, decrease of electrical resistance across MDCK cell monolayer [1]: INACTIVE
- inhibition at 125 µg/mL (L1): 1.7 ± 7.3%
- effect on L1 stimulated neurite outgrowth (in words) (L1; listed as N—Ac-CHAVDINC-NH2): did not interfere with the ability of neurons to extend neurites over 3T3 cells expressing L1

Compound: CC(=O)N[C@@H](CO)C(=O)N[C@H]1CSSC[C@@H](C(N)=O)NC(=O)[C@H](C(C)C)NC(=O)[C@H](C)NC(=O)[C@H](Cc2c[nH]cn2)NC1=O [N—Ac—S—CHAVC—NH2] (Ac-SCHAVC-NH2; disulfide 2-6)
- EC50 [6]: 490 µM

Compound: CC(=O)N[C@H]1CSSC[C@@H](C(N)=O)NC(=O)[C@H](C(C)C)NC(=O)[C@H](C)NC(=O)[C@H](Cc2c[nH]cn2)NC(=O)[C@H](CO)NC(=O)[C@H](Cc2ccccc2)NC1=O [N—Ac—CFSHAVC—NH2] (Ac-CFSHAVC-NH2; disulfide 1-7)
- EC50 [6]: 22 µM

Compound: CC(C)[C@@H]1NC(=O)[C@H](C)NC(=O)[C@H](Cc2c[nH]cn2)NC(=O)[C@@H](NC=O)CSSC[C@@H](C(N)=O)NC1=O [H—C(O)—NH—CHAVC—NH2]
- effect on electrical resistance across MDCK cells (in words) [1]: decrease in potency
- EC50 [6]: 560 µM
